From PubChem BioAssay AID732 (Emory University Molecular Libraries Screening Center, 2007) come the findings set out here.

Activity calls are given as the source filed them. The rule behind the calls is not given here.

This assay relates to in vivo angiogenesis, blood vessel count. In words: reduction of blood vessel formation in vivo – HTS, in vivo study (AID 732).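 Note: zebrafish embryos dosed at one day post fertilization; 0% = reference inhibitor and 100% = plate mean.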 Conditions: hits give low values;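 tested at 30 µM in the well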.
For the molecule `CCCn1c(=O)c2[nH]c(C3CCCC3)nc2n(CCCOC(=O)c2ccc(S(=O)(=O)F)cc2)c1=O`, the vessel count % control is 117% (inactive). The figure for `CCOC(=O)C1=C[C@]2(CC)CCCN3CCc4c(n1c1ccccc41)[C@@H]32` is 0% (inactive); for `OC[C@H]1NC[C@@H](O)[C@@H]1O` it is 96% (inactive).

`COc1ccccc1NC(=O)Nc1nc(-c2cccnc2)nc2ccccc12`: the vessel count % control is 85.6% (inactive). The same measure for `CCSC(N)=Nc1ccc(C(F)(F)F)cc1`: 87.5% (inactive); for `C[N+](C)(C)CC(=O)O`: 94% (inactive); for `C[C@H]1c2cccc(O)c2C(O)=C2C(=O)[C@]3(O)C(O)=C(C(N)=O)C(=O)[C@@H](N(C)C)[C@@H]3[C@@H](O)[C@@H]21`: 91.8% (inactive). The same measure for `CC(C)[C@@]1(NC(=O)[C@@H]2C=C3c4cccc5[nH]cc(c45)C[C@H]3N(C)C2)O[C@@]2(O)[C@@H]3CCCN3C(=O)[C@H](Cc3ccccc3)N2C1=O`: 94% (inactive); for `CCn1cc(C(=O)O)c(=O)c2cc(F)c(N3CCNC(C)C3)c(F)c21` (stereo not drawn): 89.7% (inactive); for `C[C@]12N[C@H](Cc3ccccc31)c1ccccc12`: 85.8% (inactive).

With `NC(CO)C(=O)NNCc1ccc(O)c(O)c1O` (stereo not drawn), the vessel count % control is 120% (inactive). The same measure for `Cc1ccc2c(c1)C(N1CCN(C)CC1)=Nc1cccnc1N2`: 127% (inactive).

`CN(C)C(=O)/N=N/C(=O)N(C)C`: the vessel count % control was 110% (inactive). The same measure for `CN1CCc2cccc(Cl)c2CC1`: 93.2% (inactive); for `NC(=O)CN1CCCC1=O`: 99.2% (inactive).

`COC(=O)c1c(C)[nH]c(C)c1C(=O)c1ccccc1Cc1ccccc1`: the vessel count % control is 102% (inactive).

`Nc1nc(SCc2ccc([N+](=O)[O-])cc2)c2ncn([C@@H]3O[C@H](CO)[C@H](O)C3O)c2n1` (stereo partly drawn): the vessel count % control was 112% (inactive). As to `C[C@H](Cc1ccccc1)Nc1ncnc2c1ncn2[C@@H]1O[C@H](CO)[C@H](O)C1O` (stereo partly drawn), the vessel count % control was 99.9% (inactive). On to `CCCCCCCCCCCCCCCC(=O)OC(CC(=O)O)C[N+](C)(C)C` (stereo not drawn), for which the vessel count % control was 92% (inactive). On to `COc1cccc(OC)c1OCCNCC1COc2ccccc2O1` (stereo not drawn), for which the vessel count % control was 90.6% (inactive). `C[C@H](N)CN1CCc2ccc(Br)cc21`: the vessel count % control is 126% (inactive). The figure for `CNCCC=C1c2ccccc2CCc2ccccc21` is 103% (inactive); for `FC(F)(F)c1ccccc1-n1ccnc1` it is 93.4% (inactive).

Take `CCCNC[C@H](O)COc1ccccc1C(=O)CCc1ccccc1`: the vessel count % control was 93.1% (inactive). The figure for `O=C1CC[C@@]2(O)C3Cc4ccc(O)c5c4C2(CCN3CC2CC2)[C@H]1O5` (stereo partly drawn) is 73.7% (inactive); for `NC(CCCP(=O)(O)O)C(=O)O` (stereo not drawn) it is 75.8% (inactive); for `CCCCCCCC/C=C\CCCCCCCC(=O)NCCc1ccc(O)c(O)c1` it is 115% (inactive). The figure for `O=c1onc2n1-c1cc(Br)ccc1OC2` is 95.9% (inactive); for `COc1ccc(OC)c(C(O)C(C)N)c1` (stereo not drawn) it is 94.8% (inactive). The same measure for `C[C@]12C[C@H](O)[C@H]3[C@@H](CCC4=CC(=O)CC[C@@]43C)[C@@H]1CC[C@@H]2C(=O)CO`: 103% (inactive); for `CCCN(CCC)C1CCc2cccc(O)c2C1` (stereo not drawn): 111% (inactive). Take `CCCC[C@@]1(C2CCCC2)Cc2cc(OCC(=O)O)c(Cl)c(Cl)c2C1=O`: the vessel count % control was 121% (inactive). The figure for `COc1ccccc1N1CCN(CCN(C(=O)C2CCCCC2)c2ccccn2)CC1` is 87.8% (inactive); for `O=C(Nc1cc(C(=O)Nc2ccc(S(=O)(=O)O)cc2S(=O)(=O)O)cc(C(=O)Nc2ccc(S(=O)(=O)O)cc2S(=O)(=O)O)c1)Nc1cc(C(=O)Nc2ccc(S(=O)(=O)O)cc2S(=O)(=O)O)cc(C(=O)Nc2ccc(S(=O)(=O)O)cc2S(=O)(=O)O)c1` it is 118% (inactive). The same measure for `CCN1C[C@]2(C)CC[C@H](O)[C@@]34C5C[C@@H]6[C@@H](OC)C[C@@](O)(C5[C@H]6O)[C@@H](CC23)C14` (stereo partly drawn): 76.7% (inactive). The figure for `CCCCc1oc2ccccc2c1C(=O)c1cc(I)c(OCCN(CC)CC)c(I)c1` is 120% (inactive). As for `C=CC1(C)CC(=O)C2(O)C(C)(O1)C(OC(C)=O)C(O)C1C(C)(C)CCC(O)C12C` (stereo not drawn), the vessel count % control is 97% (inactive). The same measure for `CNC(=O)[C@H]1O[C@@H](n2cnc3c(NCc4ccc(N)cc4)ncnc32)C(O)[C@H]1O` (stereo partly drawn): 134% (inactive); for `CC[C@@H](C)[C@H]1O[C@]2(CC[C@@H]1C)C[C@@H]1C[C@@H](C/C=C(\C)[C@@H](O[C@H]3C[C@H](OC)[C@@H](O[C@H]4C[C@H](OC)[C@@H](O)[C@H](C)O4)[C@H](C)O3)[C@@H](C)/C=C/C=C3\CO[C@@H]4[C@H](O)C(C)=C[C@@H](C(=O)O1)[C@]34O)O2`: 78.7% (inactive).

Turning to `COc1ccc2[nH]cc(CCN(C)C)c2c1`, the vessel count % control is 83.1% (inactive). The same measure for `O=C(Nc1ccccc1)c1cc([N+](=O)[O-])ccc1Cl`: 90.3% (inactive). The same measure for `C#CC(N)CCC(=O)O` (stereo not drawn): 80% (inactive); for `CCCCC/C=C\C/C=C\C/C=C\C/C=C\CCCC(=O)NCC(=O)O`: 83.7% (inactive); for `CN1CCc2cc(O)cc3c2[C@H]1Cc1ccc(O)c(O)c1-3`: 96.7% (inactive). The same measure for `O=C(NCCNCC(O)COc1ccc(O)cc1)N1CCOCC1` (stereo not drawn): 89.9% (inactive). For the molecule `O=C(O)Cc1cnc[nH]1`, the vessel count % control was 110% (inactive). The figure for `CCCCNc1c(C(=O)OCC)c(C)nc2c1cnn2CC` is 87.3% (inactive); for `CCCNC(=O)NS(=O)(=O)c1ccc(Cl)cc1` it is 124% (inactive). The figure for `CC(=O)/C(C)=N/O` is 104% (inactive); for `CNC[C@H](O)c1cccc(O)c1` it is 109% (inactive); for `Nc1ncnc2c1nc(Br)n2C1OC2COP(=O)(O)O[C@@H]2C1O` (stereo partly drawn) it is 101% (inactive). As for `Nc1nc2c(nc(Br)n2C2OC3COP(=O)(O)O[C@@H]3C2O)c(=O)[nH]1` (stereo partly drawn), the vessel count % control was 110% (inactive). The figure for `COc1cc(/C=C(\C#N)C(=O)c2ccc(O)c(O)c2)cc(I)c1O` is 94.3% (inactive); for `CN1C2CCC1CC(NC(=O)c1nn(C)c3ccccc13)C2` (stereo not drawn) it is 104% (inactive). Regarding `Oc1[nH]c2c(Cl)cc(Cl)cc2c1C1=Nc2ccc(Br)cc2/C1=N\OCCN1CCCC1`, the vessel count % control is 93.4% (inactive). `CN(C)CCCN1c2ccccc2Sc2ccc(C(F)(F)F)cc21`: the vessel count % control is 105% (inactive). On to `CCCOC(=O)c1c(-c2ccccc2)nc(CC)c(C(=O)SCC)c1CCC`, for which the vessel count % control is 98% (inactive). The same measure for `Fc1ccc(CN(C2=NCCN2)c2c(Cl)cccc2Cl)cc1`: 92.2% (inactive).
